Experimental data from publication PMC4869729 (Chemical Science, 2015).

Key:
[1] = test system: non-tumorigenic human embryonic kidney cell lines HEK-293T; test: XTT cytotoxicity assay, HEK-293T; type: cell-based; conditions: read-out: IC50 HEK-293T, 72 h incubation
plasmid (pBR322) DNA = test: Electrophoresis mobility shift assay; type: binding; conditions: pBR322, metal/DNAbp ratios 0.25-2.0, 37 °C, 20 h
[2] = test system: human renal Caki-1 cancer cell lines; test: XTT cytotoxicity assay, Caki-1; type: cell-based; conditions: read-out: IC50 Caki-1, 72 h incubation
thioredoxin reductase = test: Thioredoxin reductase activity in treated Caki-1 cells; type: cell-based, human
[3] = test system: TrxR in human ovarian A2780 cancer cells; conditions: 10 μM; cited from earlier work
[4] = test system: TrxR in human breast MCF-7 cancer cells; conditions: MCF-7 cells, 4 μM; cited from earlier work
MAPKAPK-3 = test: Immunoblotting of MAPKAPK-3 in Auranofin treated Caki-1 cells; type: cell-based, human; conditions: Caki-1, Western blot (Fig. S46)
[5] = test system: human renal proximal tubular cells (RPTC); test: XTT cytotoxicity assay, RPTC; type: cell-based; conditions: read-out: IC50 RPTC, 72 h incubation

Row | IC50 (thioredoxin reductase; read-out: IC50 thioredoxin reductase, after 12 hours) | Molecule | IC50 [1] | effect on electrophoretic mobility of plasmid forms (plasmid (pBR322) DNA) | IC50 [2] | inhibition of thioredoxin reductase activity (thioredoxin reductase; 5 μM, 5 hour incubation) | inhibition of total TrxR activity [3] | inhibition of total TrxR activity [4] | expression of MAPKAPK-3 (MAPKAPK-3) | IC50 [5]
1 |  | N.N.[Cl][Pt][Cl] [Cisplatin] | 3.27 ± 0.13 µM | decreased mobility of the CCC form and increased mobility of the OC form | 29 ± 4.11 µM |  |  |  |  | 
2 | 0.61 µM | CC(=O)OC[C@H]1O[C@@H]([S-])[C@H](OC(C)=O)[C@@H](OC(C)=O)[C@@H]1OC(C)=O.CCP(CC)CC.[Au+] [Auranofin] |  |  |  | 74.1% | 30% | 18% | failed to down-regulate MAKPAPK-3 | 
3 |  | [Au(Hmba)(PPh3)] [compound 4] | 1.11 ± 0.65 µM | did not affect the mobility of the faster-running supercoiled form | 2.76 ± 0.35 µM |  |  |  |  | 3.87 ± 0.15 µM
4 |  | COc1ccc(C[C]2([Ti+2][C]3(Cc4ccc(OC)cc4)C=CC=C3)C=CC=C2)cc1.[Cl-].[Cl-] [Titanocene Y] |  |  | 29.4 ± 4.18 µM |  |  |  |  | 
